Results on 4 compounds are retold here after patent US5112818A, “2-(2-cyclopropylpyrrolidin-4-ylthio)carbapenhem derivatives” (Banyu Pharmaceutical Co., Ltd., priority 1989, dated 1992).

In brackets after ≈: the same amount, converted by molar mass. Read-outs that look alike come from different tables or passages of the source.

Data set [1] deals with Meth-R. S. aureus. Nature of the data set: relative antibacterial potency, disc diffusion test (Bauer et al.). The settings on record: ratio to thienamycin (=1.0); larger value = higher activity. It is filed as cell-based. Here is the method:
The compounds of the present invention show strong antibacterial activities against various gram positive bacteria and gram negative bacteria. As representative examples, the antibacterial activities of the compounds of the present invention described in the Examples, were measured by a disc diffusion test by the method of Bauer et al. (Amer. J. Clin. Pathol., vol. 45, p. 493 (1966)). Thienamycin or imipenem was used as the internal standard.
MIC of each test compound was calculated from the diameter of the inhibition ring formed by the disc containing the test compound by using the calculation formula reported by Humphrey and Lightbown (J. Gen. Microbiol., vol. 7, p. 129 (1952)). For each microorganism, a geometrical average of MIC was obtained, and the activity ratio to thienamycin was calculated.
The antibacterial activities are represented by the ratio to thienamycin (=1.0), whereby the larger the numerical value, the higher the activities.

Data set [2] concerns S. aureus MB4970. Nature of the data set: in vitro antibacterial activity, agar plate dilution method (MIC). The settings on record: Staphylococcus aureus, 10^6 CFU/ml, 37° C., 16 hours. It is filed as cell-based. The method, then:
(§1) One platinum loopful of each test microorganism incubated overnight in Mueller Hinton broth, was inoculated to Mueller Hinton agara (inoculum size: 10^6 CFU/ml). Such culture media contained antibacterial agents in various concentrations. After incubation at 37° C. for 16 hours, the minimum inhibitory concentrations (MIC: μg/ml) were measured.

The test system of data set [3] is S. aureus JS1. The description is as above. It is filed as cell-based. The settings on record: Staphylococcus aureus; 10^6 CFU/ml; 37° C., 16 hours; S. aureus JS1, lactamase producing microorganism. Here is the method: as §1
Data set [4] relates to S. aureus 209P NIHJ JC1. The description is as above. It is filed as cell-based. The settings on record: Staphylococcus aureus, 10^6 CFU/ml, 37° C., 16 hours. The method, then: as §1
Data set [5] deals with highly methicillin resistant Staphylococcus aureus. The settings on record: in words; clinical field; cited from earlier work.
In data set [6] the test system is renal dehydropeptidase I. The settings on record: cited from earlier work.
For data set [7] the following is noted: in words; background art; cited from earlier work.
In data set [8] the test system is kidney. The settings on record: in words; due to the decomposition products; cited from earlier work.
The subject of data set [9] is gram positive bacteria and gram negative bacteria. The settings on record: in words, cited from earlier work.
Data set [10] concerns imipenem resistant Pseudomonas aeruginosa. The settings on record: in words; clinical field; cited from earlier work.
Data set [11] has as its system DHP-I. The data set is described as follows: DHP-I susceptibility (method by Kropp et al.). The settings on record: ratio to imipenem (=1.0); smaller value = higher stability.
Source text: (§2) The DHP-I susceptibility was quantitatively analyzed by the method by Kropp et al., Antimicrob.,- Agents Chemother., vol. 22, p. 62-70 (1982), whereby the smaller the numerical value representing the ratio to imipenem (=1.0), the higher the stability.
The test system of data set [12] is β-lactamase. The settings on record: in words; cited from earlier work.
The subject of data set [13] is methicillin resistant Staphylococcus aureus. The settings on record: in words; background art; cited from earlier work.
In data set [14] the test system is DHP-I.
Source text: as §2
For data set [15] the following is noted: in words; cited from earlier work.

Consider `C[C@@H](O)[C@H]1C(=O)N2C(C(=O)O)=C(S[C@@H]3CN[C@H](C4CC4C(N)=O)C3)[C@H](C)[C@H]12` (single isomer, unassigned) [Example 6], for which the “Relative antibacterial potency, Meth-R. S. aureus” value (“Relative antibacterial potency” for short) in [1] is 5.41. The MIC in data set [2] was 0.05 mg/L (≈ 0.126 µM); in [3], 0.78 mg/L (≈ 1.97 µM); in data set [4], 0.025 mg/L (≈ 0.0632 µM).
In the case of `C[C@@H](O)[C@H]1C(=O)N2C(C(=O)O)=C(SCCN=CN)C[C@H]12` [imipenem], the “treating effects against imipenem-resistant highly methicillin resistant Staphylococcus aureus” value in [5] was “does not show adequate treating effects”. The “decomposition by / stability against DHP-I” value (“decomposition by / stability” for short) in [6] (in words, background art) is listed as “likely to be decomposed by DHP-I in the human kidney”. Moreover, in [7], the chemical stability result is recorded as “remarkably improved over thienamycin”. In data set [8], the “toxicity against the kidney” value is “presents toxicity against the kidney due to the decomposition products”. Further, in data set [9] (various types of bacteria), the “antibacterial activities relative to thienamycin” value is recorded as “equal or higher level than thienamycin”. The “Relative antibacterial potency” value in data set [1] was 2.57. In addition, in data set [10], the “treating effects against imipenem resistant Pseudomonas aeruginosa” value is reported as “does not show adequate treating effects”. In addition, the DHP-I susceptibility in [11] is reported as 1.0. Besides, the β-lactamase resistance result in data set [12] is given as “has β-lactamase resistance”.
Turning to `C[C@@H](O)[C@H]1C(=O)N2C(C(=O)O)=C(S[C@@H]3CN[C@H](C(=O)N(C)C)C3)[C@H](C)[C@H]12` [meropenem], in data set [6], the “decomposition by / stability” value is listed as “stability against DHP-I substantially improved”. Moreover, the “Relative antibacterial potency” value in [1] is recorded as 3.15. In data set [13], the “antibacterial activities against highly methicillin resistant Staphylococcus aureus” value is “not adequate”. Besides, the DHP-I susceptibility in data set [14] turned out to be 0.12.
In the case of `C[C@@H](O)[C@H]1C(=O)N2C(C(=O)O)=C(SCCN)C[C@H]12` [thienamycin], in data set [6] (in words, background art), the “decomposition by / stability” value was “likely to be decomposed by a certain enzyme in vivo such as renal dehydropeptidase I”. Also, the chemical stability entry in [7] was “chemically unstable”. Besides, the antibacterial activities result in data set [9] (gram positive and gram negative bacteria) is “strong antibacterial activities over a wide range against gram positive bacteria and gram negative bacteria”. The “recovery rate in the urine” value in data set [15] is “low”.
